{"source": "patent US9255295B2", "about": "“Method for evaluating the sensitizing potential of a test compound” (IMMUNOSEARCH, priority 2010, dated 2016)", "tested_on": "ARE gene family (AKR1B10, AKR1C1, AKR1C2, CYP1B1, FTH1P, FTL, G6PD, GCLM, NQO2, SLC7A11, TXNRD1, UGT1A1, UGT1A9, YWHAZ, CD36, CYP1A1, GCLC, HMOX1, NQO1, PSME2 …)", "note": "Where two headings read alike, the source gives them in different places.", "data": [{"compound": "O=CC=O", "note": "[Glyoxal]", "values": [{"measurement": "AHR NUMBER OF GENES grade", "setting": "0.1%", "value": "0 (if this expression is lower, the grade is 0)"}, {"measurement": "AKR1B10 NUMBER OF GENES grade", "setting": "0.1%", "value": "0 (if this expression is lower, the grade is 0)"}, {"measurement": "AKR1C1 NUMBER OF GENES grade", "setting": "0.1%", "value": "0 (if this expression is lower, the grade is 0)"}, {"measurement": "AKR1C2 NUMBER OF GENES grade", "setting": "0.1%", "value": "0 (if this expression is lower, the grade is 0)"}, {"measurement": "ARE >1.3 (number of genes)", "setting": "0.1%", "value": 0}, {"measurement": "CD36 NUMBER OF GENES grade", "setting": "0.1%", "value": "0 (if this expression is lower, the grade is 0)"}, {"measurement": "CYP1A1 NUMBER OF GENES grade", "setting": "0.1%", "value": "0 (if this expression is lower, the grade is 0)"}, {"measurement": "CYP1B1 NUMBER OF GENES grade", "setting": "0.1%", "value": "0 (if this expression is lower, the grade is 0)"}, {"measurement": "FTH1P NUMBER OF GENES grade", "setting": "0.1%", "value": "0 (if this expression is lower, the grade is 0)"}, {"measurement": "FTL NUMBER OF GENES grade", "setting": "0.1%", "value": "0 (if this expression is lower, the grade is 0)"}, {"measurement": "GCLC NUMBER OF GENES grade", "setting": "0.1%", "value": "0 (if this expression is lower, the grade is 0)"}, {"measurement": "GCLM NUMBER OF GENES grade", "setting": "0.1%", "value": "0 (if this expression is lower, the grade is 0)"}, {"measurement": "HMOX1 NUMBER OF GENES grade", "setting": "0.1%", "value": "0 (if this expression is lower, the grade is 0)"}, {"measurement": "NQO1 NUMBER OF GENES grade", "setting": "0.1%", "value": "0 (if this expression is lower, the grade is 0)"}, {"measurement": "NQO2 NUMBER OF GENES grade", "setting": "0.1%", "value": "0 (if this expression is lower, the grade is 0)"}, {"measurement": "S100A8 NUMBER OF GENES grade", "setting": "0.1%", "value": "0 (if this expression is lower, the grade is 0)"}, {"measurement": "SLC7A11 NUMBER OF GENES grade", "setting": "0.1%", "value": "0 (if this expression is lower, the grade is 0)"}, {"measurement": "TOTAL ARE (number of genes)", "setting": "0.1%", "value": 0}, {"measurement": "TXNRD1 NUMBER OF GENES grade", "setting": "0.1%", "value": "0 (if this expression is lower, the grade is 0)"}, {"measurement": "UGT1A1 NUMBER OF GENES grade", "setting": "0.1%", "value": "0 (if this expression is lower, the grade is 0)"}, {"measurement": "UGT1A9 NUMBER OF GENES grade", "setting": "0.1%", "value": "0 (if this expression is lower, the grade is 0)"}, {"measurement": "AHR expression", "setting": "0.1%, compared to the control", "value": 0.9}, {"measurement": "AKR1B10 expression", "setting": "0.1%, compared to the control", "value": 0.6}, {"measurement": "AKR1C1 expression", "setting": "0.1%, compared to the control", "value": 0.8}, {"measurement": "AKR1C2 expression", "setting": "0.1%, compared to the control", "value": 0.8}, {"measurement": "CD36 expression", "setting": "0.1%, compared to the control", "value": 1.1}, {"measurement": "CYP1A1 expression", "setting": "0.1%, compared to the control", "value": 0.6}, {"measurement": "CYP1B1 expression", "setting": "0.1%, compared to the control", "value": 0.6}, {"measurement": "FTH1P expression", "setting": "0.1%, compared to the control", "value": 0.9}, {"measurement": "FTL expression", "setting": "0.1%, compared to the control", "value": 1.0}, {"measurement": "GCLC expression", "setting": "0.1%, compared to the control", "value": 1.0}, {"measurement": "GCLM expression", "setting": "0.1%, compared to the control", "value": 0.9}, {"measurement": "HMOX1 expression", "setting": "0.1%, compared to the control", "value": 1.0}, {"measurement": "NQO1 expression", "setting": "0.1%, compared to the control", "value": 1.0}, {"measurement": "NQO2 expression", "setting": "0.1%, compared to the control", "value": 0.8}, {"measurement": "S100A8 expression", "setting": "0.1%, compared to the control", "value": 0.7}, {"measurement": "SLC7A11 expression", "setting": "0.1%, compared to the control", "value": 1.0}, {"measurement": "TXNRD1 expression", "setting": "0.1%, compared to the control", "value": 1.0}, {"measurement": "UGT1A1 expression", "setting": "0.1%, compared to the control", "value": 0.9}, {"measurement": "UGT1A9 expression", "setting": "0.1%, compared to the control", "value": 0.3}, {"measurement": "AHR NUMBER OF GENES grade", "setting": "1%", "value": "0 (if this expression is lower, the grade is 0)"}, {"measurement": "AKR1B10 NUMBER OF GENES grade", "setting": "1%", "value": "0 (if this expression is lower, the grade is 0)"}, {"measurement": "AKR1C1 NUMBER OF GENES grade", "setting": "1%", "value": "0 (if this expression is lower, the grade is 0)"}, {"measurement": "AKR1C2 NUMBER OF GENES grade", "setting": "1%", "value": "0 (if this expression is lower, the grade is 0)"}, {"measurement": "ARE >1.3 (number of genes)", "setting": "1%", "value": 1}, {"measurement": "CD36 expression compared to control", "setting": "1%", "value": 1.1}, {"measurement": "CD36 grade (NUMBER OF GENES)", "setting": "1%", "value": "0 (if this expression is lower, the grade is 0)"}, {"measurement": "CYP1A1 NUMBER OF GENES grade", "setting": "1%", "value": "0 (if this expression is lower, the grade is 0)"}, {"measurement": "CYP1B1 NUMBER OF GENES grade", "setting": "1%", "value": "0 (if this expression is lower, the grade is 0)"}, {"measurement": "FTH1P NUMBER OF GENES grade", "setting": "1%", "value": "0 (if this expression is lower, the grade is 0)"}, {"measurement": "FTL NUMBER OF GENES grade", "setting": "1%", "value": "0 (if this expression is lower, the grade is 0)"}, {"measurement": "GCLC NUMBER OF GENES grade", "setting": "1%", "value": "0 (if this expression is lower, the grade is 0)"}, {"measurement": "GCLM NUMBER OF GENES grade", "setting": "1%", "value": "0 (if this expression is lower, the grade is 0)"}, {"measurement": "HMOX1 NUMBER OF GENES grade", "setting": "1%", "value": "0 (if this expression is lower, the grade is 0)"}, {"measurement": "NQO1 NUMBER OF GENES grade", "setting": "1%", "value": "0 (if this expression is lower, the grade is 0)"}, {"measurement": "NQO2 NUMBER OF GENES grade", "setting": "1%", "value": "0 (if this expression is lower, the grade is 0)"}, {"measurement": "S100A8 expression compared to control", "setting": "1%", "value": 0.9}, {"measurement": "S100A8 grade (NUMBER OF GENES)", "setting": "1%", "value": "0 (if this expression is lower, the grade is 0)"}, {"measurement": "SLC7A11 NUMBER OF GENES grade", "setting": "1%", "value": "1 (If the expression is greater than 1.3 compared to the control, a grade of 11s given)"}, {"measurement": "TOTAL ARE (number of genes)", "setting": "1%", "value": 1}, {"measurement": "TXNRD1 NUMBER OF GENES grade", "setting": "1%", "value": "0 (if this expression is lower, the grade is 0)"}, {"measurement": "UGT1A1 NUMBER OF GENES grade", "setting": "1%", "value": "0 (if this expression is lower, the grade is 0)"}, {"measurement": "UGT1A9 NUMBER OF GENES grade", "setting": "1%", "value": "0 (if this expression is lower, the grade is 0)"}, {"measurement": "AHR expression", "setting": "1%, compared to the control", "value": 1.1}, {"measurement": "AKR1B10 expression", "setting": "1%, compared to the control", "value": 1.1}, {"measurement": "AKR1C1 expression", "setting": "1%, compared to the control", "value": 1.0}, {"measurement": "AKR1C2 expression", "setting": "1%, compared to the control", "value": 1.0}, {"measurement": "CYP1A1 expression", "setting": "1%, compared to the control", "value": 0.9}, {"measurement": "CYP1B1 expression", "setting": "1%, compared to the control", "value": 1.1}, {"measurement": "FTH1P expression", "setting": "1%, compared to the control", "value": 1.0}, {"measurement": "FTL expression", "setting": "1%, compared to the control", "value": 1.1}, {"measurement": "GCLC expression", "setting": "1%, compared to the control", "value": 1.1}, {"measurement": "GCLM expression", "setting": "1%, compared to the control", "value": 0.9}, {"measurement": "HMOX1 expression", "setting": "1%, compared to the control", "value": 0.9}, {"measurement": "NQO1 expression", "setting": "1%, compared to the control", "value": 1.1}, {"measurement": "NQO2 expression", "setting": "1%, compared to the control", "value": 1.0}, {"measurement": "SLC7A11 expression", "setting": "1%, compared to the control", "value": 1.4}, {"measurement": "TXNRD1 expression", "setting": "1%, compared to the control", "value": 0.9}, {"measurement": "UGT1A1 expression", "setting": "1%, compared to the control", "value": 1.2}, {"measurement": "UGT1A9 expression", "setting": "1%, compared to the control", "value": 0.6}]}]}
